{"source": "patent US20260356823A1", "about": "“SODIUM CHANNEL REGULATOR AND USE THEREOF” (SHANGHAI HUILUN PHARMACEUTICAL CO., LTD., priority 2022, published 2026)", "experiment": "Efficacy on a mouse model of incisional pain, mechanical pain threshold (PWT)", "assay_type": "in vivo", "details": "intravenous", "excerpt": "Bioactivity Test 3: Efficacy of the Compound on a Mouse Model of Incisional Pain\nModel establishment: Through isoflurane anesthesia and routine disinfection, a 0.5 cm longitudinal skin incision extending to the toe was made with a blade on the plantar surface of the left hindfoot about 0.2 cm distal to the joint; and the plantar muscle was separated, slightly elevated, and then incised longitudinally, taking care not to disrupt the muscle origin. The incision was sutured horizontally and interruptedly with 5-0 nylon thread (2 sutures).\nSolvents: A solvent for the test compound was 5% DMSO+10% Solutol+85% Saline, and a solvent for a positive compound TRV-130 was 10% ethanol+10% cremophor+80% water. […]\nMechanical pain threshold measurement: Before modeling, a pre-modeling mechanical pain threshold was measured. At 2.5 h after modeling, a pre-administration mechanical pain threshold was measured. Oral administration was carried out after the measurement, and a mechanical pain threshold was measured at 2 h after the administration. […] Each animal was measured three times at intervals of 3-5 minutes, and an average value was calculated.\nData analysis: Relevant data was organized in Office Excel 2013 and GraphPad Prism 6.0. Data was expressed as Mean±SEM (standard error). […]"}
{"smiles": "COc1ccsc1CNCC[C@@]1(c2ccccn2)CCOC2(CCCC2)C1", "note": "[TRV-130]", "values": [{"measurement": "PWT after modeling", "setting": "TRV-130 0.5 mg/kg group, after modeling, pre-administration, 2.5 h after modeling", "value": 5.40, "unit": "g"}, {"measurement": "PWT 2 h after administration", "setting": "TRV-130 0.5 mg/kg, 2 h after administration", "value": 8.94, "unit": "g"}]}
